Numbers after ± are expanded uncertainties.
Settings: Liquid, Closed cell (Static) method

vapor or sublimation pressure (303.15 K) [kPa] | vapor or sublimation pressure (313.15 K) [kPa] | vapor or sublimation pressure (308.15 K) [kPa] | vapor or sublimation pressure (318.15 K) [kPa] | SMILES
10.43 ± 0.29 | 17.84 ± 0.32 |  |  | CCO [ethanol]
7.933 ± 0.28 |  | 10.72 ± 0.29 |  | CC(C)O [propan-2-ol]
4.186 ± 0.27 | 7.346 ± 0.27 | 5.493 ± 0.27 | 9.493 ± 0.27 | O [water]

— the NIST ThermoML archive (doi:10.1021/je100624p)
